Experimental data taken from ChEMBL document CHEMBL1127727, “Synthesis and structure-activity relationships of novel retinoid X receptor-selective retinoids” (J Med Chem, 1994).
pEC50, pKd: −log10 of the molar value.

Experiments:
[1] = biological target: T1, Retinoic acid receptor RXR-gamma (Mus musculus, UniProt P28705); assay: Effective concentration against retinoid receptor isoform (RXR gamma) expressed in CV-1 cells; type: cell-based
T1 sequence (P28705 whole entry): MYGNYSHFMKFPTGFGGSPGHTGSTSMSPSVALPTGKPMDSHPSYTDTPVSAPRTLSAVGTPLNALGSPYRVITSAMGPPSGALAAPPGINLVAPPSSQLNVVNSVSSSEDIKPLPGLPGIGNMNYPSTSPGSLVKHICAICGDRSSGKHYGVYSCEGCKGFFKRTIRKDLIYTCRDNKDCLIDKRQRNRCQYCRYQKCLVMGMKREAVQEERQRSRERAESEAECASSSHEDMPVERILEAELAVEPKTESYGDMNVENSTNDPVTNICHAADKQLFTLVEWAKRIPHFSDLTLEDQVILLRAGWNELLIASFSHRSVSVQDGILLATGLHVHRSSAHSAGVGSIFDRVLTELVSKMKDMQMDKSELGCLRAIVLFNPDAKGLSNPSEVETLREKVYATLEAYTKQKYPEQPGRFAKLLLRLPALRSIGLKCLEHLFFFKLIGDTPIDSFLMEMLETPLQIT

[2] = biological target: T2, Retinoic acid receptor RXR-beta (Mus musculus, UniProt P28704); assay: Effective concentration against retinoid receptor isoform (RXR beta) expressed in CV-1 cells; type: cell-based
T2 sequence (P28704 whole entry): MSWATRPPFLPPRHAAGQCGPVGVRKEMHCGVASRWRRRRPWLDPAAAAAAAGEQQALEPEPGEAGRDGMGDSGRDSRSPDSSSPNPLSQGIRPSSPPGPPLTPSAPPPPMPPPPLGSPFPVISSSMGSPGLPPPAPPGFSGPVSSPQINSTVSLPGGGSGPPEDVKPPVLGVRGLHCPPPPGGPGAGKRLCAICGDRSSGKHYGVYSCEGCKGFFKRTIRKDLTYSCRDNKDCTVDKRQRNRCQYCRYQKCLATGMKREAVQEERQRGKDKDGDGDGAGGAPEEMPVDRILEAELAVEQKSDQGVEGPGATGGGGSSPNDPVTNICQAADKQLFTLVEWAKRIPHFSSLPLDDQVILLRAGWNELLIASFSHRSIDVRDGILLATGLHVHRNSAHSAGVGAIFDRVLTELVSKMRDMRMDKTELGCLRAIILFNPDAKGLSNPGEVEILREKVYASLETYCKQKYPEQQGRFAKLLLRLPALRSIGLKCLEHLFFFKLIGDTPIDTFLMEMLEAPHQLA

[3] = biological target: T1, Retinoic acid receptor RXR-gamma; assay: Inhibition of [3H]9-cis-RA binding to baculovirus expressed retinoid receptor RXR gamma
[4] = biological target: T3, Retinoic acid receptor beta (Homo sapiens, UniProt P10826); assay: Inhibition of [3H]ATRA binding to baculovirus expressed retinoid receptor RAR beta
T3 sequence (P10826 whole entry): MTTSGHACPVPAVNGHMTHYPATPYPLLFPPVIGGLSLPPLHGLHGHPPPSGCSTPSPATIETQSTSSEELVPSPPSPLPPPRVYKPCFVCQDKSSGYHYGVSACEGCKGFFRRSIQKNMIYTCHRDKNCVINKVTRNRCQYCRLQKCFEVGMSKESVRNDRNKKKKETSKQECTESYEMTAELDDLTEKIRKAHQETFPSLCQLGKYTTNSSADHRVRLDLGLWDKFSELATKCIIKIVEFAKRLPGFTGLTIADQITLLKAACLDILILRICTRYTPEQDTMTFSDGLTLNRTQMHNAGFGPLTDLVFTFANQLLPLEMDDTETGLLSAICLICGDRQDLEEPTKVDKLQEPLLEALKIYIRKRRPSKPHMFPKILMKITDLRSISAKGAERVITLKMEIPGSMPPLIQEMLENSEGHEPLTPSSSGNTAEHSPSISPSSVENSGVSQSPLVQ

[5] = biological target: T4, Retinoic acid receptor alpha (Homo sapiens, UniProt P10276); assay: Inhibition of [3H]ATRA binding to baculovirus expressed retinoid receptor RAR alpha
T4 sequence (P10276 whole entry): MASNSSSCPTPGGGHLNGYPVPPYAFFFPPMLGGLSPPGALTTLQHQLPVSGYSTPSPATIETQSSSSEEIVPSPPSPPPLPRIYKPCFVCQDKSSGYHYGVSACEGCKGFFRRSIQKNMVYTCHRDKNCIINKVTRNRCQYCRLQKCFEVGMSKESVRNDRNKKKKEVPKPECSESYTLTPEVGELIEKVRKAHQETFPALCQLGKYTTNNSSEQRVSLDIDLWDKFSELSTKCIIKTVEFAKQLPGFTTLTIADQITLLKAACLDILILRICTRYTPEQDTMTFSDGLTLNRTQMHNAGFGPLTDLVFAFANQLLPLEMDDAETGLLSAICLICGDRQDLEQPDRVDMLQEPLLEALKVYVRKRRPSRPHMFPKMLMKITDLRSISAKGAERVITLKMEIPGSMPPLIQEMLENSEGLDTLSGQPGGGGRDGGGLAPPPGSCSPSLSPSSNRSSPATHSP

[6] = biological target: T4, Retinoic acid receptor alpha; assay: Effective concentration against retinoid receptor isoform (RAR alpha) expressed in CV-1 cells; type: cell-based
[7] = biological target: T3, Retinoic acid receptor beta; assay: Effective concentration against retinoid receptor isoform (RAR beta) expressed in CV-1 cells; type: cell-based
[8] = biological target: T5, Retinoic acid receptor RXR-alpha (Homo sapiens, UniProt P19793)
T5 sequence (P19793 whole entry): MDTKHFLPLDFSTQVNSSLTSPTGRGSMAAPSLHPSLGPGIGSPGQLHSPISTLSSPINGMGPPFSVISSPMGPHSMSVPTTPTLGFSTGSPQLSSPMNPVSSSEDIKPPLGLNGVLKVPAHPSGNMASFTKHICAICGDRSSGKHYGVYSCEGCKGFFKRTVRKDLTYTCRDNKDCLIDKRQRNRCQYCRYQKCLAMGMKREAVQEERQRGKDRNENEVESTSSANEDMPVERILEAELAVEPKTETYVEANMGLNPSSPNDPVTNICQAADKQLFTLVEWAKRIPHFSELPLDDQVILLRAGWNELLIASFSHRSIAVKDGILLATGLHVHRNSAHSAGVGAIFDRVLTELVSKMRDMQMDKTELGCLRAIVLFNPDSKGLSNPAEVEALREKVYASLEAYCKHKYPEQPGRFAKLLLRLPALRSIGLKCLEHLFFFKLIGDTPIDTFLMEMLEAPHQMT
Description: Inhibition of [3H]9-cis-RA binding to baculovirus expressed retinoid receptor RXR alpha

[9] = biological target: T2, Retinoic acid receptor RXR-beta; assay: Inhibition of [3H]9-cis-RA binding to baculovirus expressed retinoid receptor RXR beta
[10] = biological target: T5, Retinoic acid receptor RXR-alpha; remark: listed apart in the source
Description: Effective concentration against retinoid receptor isoform (RXR alpha) expressed in CV-1 cells

[11] = biological target: T6, Retinoic acid receptor gamma (Homo sapiens, UniProt P13631); assay: Tested for binding affinity against [3H]-ATRA binding to retinoid receptor isoform (RAR gamma) expressed in baculovirus
T6 sequence (P13631 whole entry): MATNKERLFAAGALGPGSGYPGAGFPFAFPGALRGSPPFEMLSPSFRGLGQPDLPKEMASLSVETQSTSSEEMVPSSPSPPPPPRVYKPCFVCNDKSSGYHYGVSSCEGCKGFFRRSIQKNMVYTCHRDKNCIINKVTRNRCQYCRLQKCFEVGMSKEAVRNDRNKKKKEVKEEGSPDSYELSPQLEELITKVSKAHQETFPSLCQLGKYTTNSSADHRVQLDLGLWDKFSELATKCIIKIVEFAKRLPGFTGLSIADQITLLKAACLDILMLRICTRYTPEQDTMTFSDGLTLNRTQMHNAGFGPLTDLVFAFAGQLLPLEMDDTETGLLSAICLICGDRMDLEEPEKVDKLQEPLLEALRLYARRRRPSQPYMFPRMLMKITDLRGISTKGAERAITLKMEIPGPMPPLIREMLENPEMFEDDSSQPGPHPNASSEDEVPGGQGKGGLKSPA

[12] = biological target: T6, Retinoic acid receptor gamma; assay: Effective concentration against retinoid receptor isoform (RAR gamma) expressed in CV-1 cells; type: cell-based
[13] = biological target: T4, Retinoic acid receptor alpha; assay: Inhibition of [3H]-ATRA binding to baculovirus expressed retinoid receptor RAR alpha

Row | Compound | pEC50 [1] | pEC50 [2] | pKd [3] | pKd [4] | pKd [5] | pEC50 [6] | pEC50 [7] | pKd [8] | pKd [9] | pEC50 [10] | pKd [11] | pEC50 [12] | pKd [13]
1 | C=C(c1ccc(C(=O)O)cc1)c1cc2c(cc1OC)C(C)(C)CCC2(C)C | 6.64 | 6.70 | 6.95 | < 6.00 | < 6.00 | < 5.00 | < 5.00 | 7.02 | 6.72 | 7.08 | < 6.00 | < 5.00 | –
2 | CC1(C)CCC(C)(C)c2cc(C(=O)c3ccc(C(=O)O)cc3)c(O)cc21 | < 5.00 | < 5.00 | < 6.00 | < 6.00 | – | < 5.00 | < 5.00 | 6.09 | < 6.00 | < 5.00 | < 6.00 | < 5.00 | < 6.00
3 | C=C(c1ccc(C(=O)O)cc1)c1cc2c(cc1F)C(C)(C)CCC2(C)C | 6.42 | 6.72 | 7.03 | < 6.00 | – | < 5.00 | 6.47 | 7.16 | 6.97 | 6.71 | < 6.00 | 6.40 | < 6.00
